According to patent US10166225B2, “Method for treating osteoporosis” (Exelixis, Inc., priority 2011, dated 2019):

Legend:
[1] = tested on: KS483 mouse osteoprogenitor cells; assay: Osteoblast differentiation assay (cellular ALP activity at day 8); assay type: cell-based; conditions: reference stimulator, 10 nM
Description: In the third part, KS483 mouse osteoprogenitor cells were cultured for 8 days, after which the formed mature osteoblasts were quantitated by measuring the amount of intracellular alkaline phosphatase (ALP) activity. […] The effects on osteoblasts were studied using KS483 mouse osteoprogenitor cells that can be induced to differentiate into bone-forming osteoblasts. […] In the osteoblast differentiation assay, the cells were cultured for 8 days, after which the formed mature osteoblasts were quantitated by measuring the amount of intracellular alkaline phosphatase (ALP) activity. […] A culture system was established that can be used as an in vitro model for studying the effects of anabolic and estrogen-like compounds on osteoblast differentiation and activity. In this culture system mouse KS483 cells first proliferate and then differentiate into osteoblasts capable of forming mineralized bone nodules in the presence of ascorbic acid and ß-glycerophosphate (Fagerlund et al. 2009). The test and reference compounds are added into the cell cultures concomitantly with the medium change, and their effects on the differentiation and activity of osteoblasts are determined. Cellular ALP, a marker of osteoblast differentiation, is determined from the cell lysates as described earlier (Lowry et al. 1954). Secreted PINP, a marker of organic bone matrix formation, is determined from the culture medium using a commercially available method (Rat/Mouse PINP EIA, IDS Ltd, Boldon, UK). Calcium deposition, an index of inorganic bone matrix formation, is measured using a commercially available calcium assay (Roche Diagnostics). Mouse KS483 cells were cultured in T-75 tissue culture flasks in aMEM supplemented with 10% charcoal-stripped fetal bovine serum until 80-90% confluence. The cells were incubated in a CO2 incubator in humidified atmosphere of 95% air and 5% carbon dioxide at 37° C. After reaching 80-90% confluence, subcultures were prepared. Cells were removed from the flasks with trypsin treatment and counted. For induction of the maturation of osteoblasts and bone formation, the immature osteoblastic cells were plated in type I collagen-coated 96-well plates. The cells were cultured for 8 days with a supplement of ascorbic acid ([…]), and half of the media was changed every 3-4 days. The test compound and control substance (E2) were added in the beginning of the culture period and when the medium was changed. The cultures were stopped at day 8 by removing the culture media from the wells, and cell lysates were prepared. Cellular ALP activity and total protein content (Protein Assay, Bio-Rad Laboratories Inc, CA, USA) were quantitated by using VICTOR2™ Multilabel Counter (PerkinElmer, Waltham, Mass., USA).

[2] = tested on: KS483 mouse osteoprogenitor cells; assay: Osteoblast activity assay (PINP at day 11, calcium deposition at day 13); assay type: cell-based; conditions: reference stimulator, 10 nM
Description: The effects on osteoblasts were studied using KS483 mouse osteoprogenitor cells that can be induced to differentiate into bone-forming osteoblasts. […] In the osteoblast differentiation assay, the cells were cultured for 8 days, after which the formed mature osteoblasts were quantitated by measuring the amount of intracellular alkaline phosphatase (ALP) activity. […] A culture system was established that can be used as an in vitro model for studying the effects of anabolic and estrogen-like compounds on osteoblast differentiation and activity. In this culture system mouse KS483 cells first proliferate and then differentiate into osteoblasts capable of forming mineralized bone nodules in the presence of ascorbic acid and ß-glycerophosphate (Fagerlund et al. 2009). The test and reference compounds are added into the cell cultures concomitantly with the medium change, and their effects on the differentiation and activity of osteoblasts are determined. Cellular ALP, a marker of osteoblast differentiation, is determined from the cell lysates as described earlier (Lowry et al. 1954). Secreted PINP, a marker of organic bone matrix formation, is determined from the culture medium using a commercially available method (Rat/Mouse PINP EIA, IDS Ltd, Boldon, UK). Calcium deposition, an index of inorganic bone matrix formation, is measured using a commercially available calcium assay (Roche Diagnostics). Mouse KS483 cells were cultured in T-75 tissue culture flasks in aMEM supplemented with 10% charcoal-stripped fetal bovine serum until 80-90% confluence. The cells were incubated in a CO2 incubator in humidified atmosphere of 95% air and 5% carbon dioxide at 37° C. After reaching 80-90% confluence, subcultures were prepared. Cells were removed from the flasks with trypsin treatment and counted. For induction of the maturation of osteoblasts and bone formation, the immature osteoblastic cells were plated in type I collagen-coated 96-well plates. The cells were cultured for 13 days with a supplement of ascorbic acid (50 μg/ml) and ß-glycerophosphate (5 mM), and half of the media was changed every 3-4 days. The test compound and control substance (E2) were added in the beginning of the culture period and when the medium was changed. Secreted PINP was measured from the culture medium at day 11 as a marker of organic bone matrix formation. The cultures were stopped at day 13 by removing the culture media from the wells and adding hydrochloric acid. Calcium deposited into the formed bone matrix was quantitated by using VICTOR2™ Multilabel Counter (PerkinElmer, Waltham, Mass., USA).

[3] = tested on: rat ovariectomy (OVX) model; assay: Short-term effects on body weight, uterine weight and bone turnover markers in the rat ovariectomy (OVX) model; assay type: in vivo, rat (Sprague-Dawley); design: key to Body weight, change during the first week / Body weight, change during the in-life phase / Relative uterine weight at day 14 / Serum PINP levels, change during the in-life phase / Serum OC levels, change during the in-life phase / Serum CTX levels, change during the in-life phase / Serum TRACP 5b activity, change during the in-life phase: An upwards arrow (↑) indicates a statistically significant increase; a downwards arrow (↓) a statistically significant decrease; One asterisk (*) indicates a statistical significance with a p-value<0.05; two asterisks (**) with a p-value<0.01; three asterisks (***) with a p-value<0.001; NS=Non-significant
Description: The objective of this study was to investigate short-term effects of Compound 1 on biochemical serum markers of bone metabolism in a prevention study in a rat ovariectomy (OVX) model for postmenopausal osteoporosis. 17β-estradiol (E2) was used as a reference compound. The following five experimental groups were included in the study:
Each group contained eight female rats (Sprague-Dawley) that were three months of age at the beginning of in-life phase of the study. Before the start of the in-life phase, animals were weighed, their blood samples were harvested, and animals were randomized to study groups by stratification according to body weight and serum levels of procollagen type I N-terminal propeptide (PINP). At the beginning of the in-life phase, animals were weighed and operated. Treatment was started one day after the operations and continued once a day for two weeks. Sterile water was used as vehicle in groups 1 and 2. Body weight was determined after one week of treatment and treatment doses were adjusted accordingly. After two weeks of treatment, animals were weighed, their blood samples were harvested, animals were terminated, and their relative uterine weight was determined. For analyzing short-term effects of treatments, levels of four bone metabolism biomarkers were determined in serum samples harvested before the start and at the end of the in-life phase. These biomarkers included PINP as a marker of bone formation, N-terminal mid-fragment of osteocalcin (OC) as a general marker of bone turnover, C terminal cross-linked telopeptides of type I collagen (CTX) as a marker of bone resorption, and tartrate-resistant acid phosphatase isoform 5b (TRACP 5b) as a marker of osteoclast number. Serum levels at day −7 were used as baseline levels and serum levels at day 14 as levels affected by operations and treatments.
Each group contained eight female rats (Sprague-Dawley) that were three months of age at the beginning of in-life phase of the study. Animals were randomized to study groups by stratification according to their body weight and serum levels of procollagen type I N-terminal propeptide (PINP) measured one week before the start of the in-life phase (at day −7). At the beginning of the in-life phase (at day 0), animals were weighed, animals in groups 2-5 were ovariectomized, and animals in group 1 SHAM-operated. Treatment was started one day after the operations and continued once a day for two weeks (up to day 13). Sterile water was used as vehicle in groups 1 and 2. Body weight was determined at the beginning of the in-life phase (at day 0), one week after the start of the inlife phase (at day 7), and at the end of the in-life phase (at day 14). Treatment doses were adjusted according to the latest body weight obtained. After two weeks of treatment (at day 14), animals were weighed, their blood samples were harvested, animals were terminated, and their relative uterine weight was determined. For analyzing short-term effects of treatments, levels of four bone metabolism biomarkers were measured in serum samples harvested before the start of the in-life phase (at day −7) and at the end of the in-life phase (at day 14). These biochemical serum markers included PINP, N-terminal mid-fragment of osteocalcin (OC), C-terminal cross-linked telopeptides of type I collagen (CTX), and tartrate-resistant acid phosphatase isoform 5b (TRACP 5b). Serum levels obtained at day −7 were used as baseline levels and serum levels obtained at day 14 as levels affected by surgical operations and treatments.
Biochemical markers of bone metabolism are useful tools for monitoring osteoporosis therapy and for prediction of fracture risk and long-term changes in bone mineral density (Cremers et al. 2008). […]

[4] = tested on: human bone marrow-derived CD34+ osteoclast precursor cells; assay: Osteoclast differentiation assay (secreted TRACP 5b at day 7); assay type: cell-based; conditions: reference inhibitor, 5 nM
Description: The study was performed in four parts. In the first part, human bone marrow-derived CD34+ osteoclast precursor cells were cultured on bovine bone slices for 7 days, after which the formed osteoclasts were quantitated by measuring tartrate-resistant acid phosphatase 5b activity (TRACP 5b) in the culture medium.
The objective of this study was to investigate the effects of Compound 1 selected by the Sponsor on differentiation and activity of human osteoclasts and mouse osteoblasts in vitro. The effects on osteoclasts were studied using a model where bone marrow-derived human osteoclast precursor cells are cultured on bovine bone slices for 7 days in conditions favouring osteoclast differentiation, and allowed to differentiate into bone-resorbing osteoclasts. After completion of osteoclast differentiation at day 7, the culture medium was removed and new culture medium favouring osteoclast activity was added into the wells. The mature osteoclasts were then cultured for an additional 3 days, allowing them to resorb bone. In the osteoclast differentiation assay, the test compounds and a reference inhibitor osteoprotegerin (OPG) were added into cultures at day 0. In the osteoclast activity assay, the test compounds and a reference inhibitor E64 were added into cultures at day 7. Seven concentrations in 8 replicates were tested in both assays. Tartrate-resistant acid phosphatase 5b activity (TRACP 5b) was measured from the culture medium collected at day 7 as an index of the number of osteoclasts formed in each well during the differentiation period. C-terminal cross-linked telopeptides of type I collagen (CTX) was measured from the culture medium collected at day 10 to quantitate bone resorption during days 7-10.
A human osteoclast culture system was developed for use in this study where CD34+ osteoclast precursor cells derived from human bone marrow (Poietics® Human Osteoclast Precursors, Lonza, Walkersville, USA) are cultured on bovine bone slices in the presence of appropriate growth factors, including M-CSF and RANK-ligand (Rissanen et al. 2009). The cells are first allowed to differentiate into mature bone-resorbing osteoclasts, and the formed osteoclasts are then allowed to resorb bone. The test and reference compounds are added into the cell cultures at the beginning of the differentiation and/or the resorption period, and their effects on the differentiation and/or resorbing activity of osteoclasts are determined.
Secreted TRACP 5b is determined from the culture medium after the differentiation period using a commercially available method (BoneTRAPÒ, IDS Ltd, Boldon, UK). Secreted TRACP 5b describes accurately the number of osteoclasts formed in each well during the differentiation period. CTX is determined from the culture medium after the resorption period using a commercially available method (CrossLapsÒ for cultures, IDS Ltd, Boldon, UK). CTX describes accurately the amount of bone collagen degradation products released into the culture medium in each well during the resorption period.
In this study, human bone marrow-derived CD34+ stem cells (10000 cells/well) were suspended in culture medium and allowed to attach to bovine bone slices in 96-well tissue culture plates. The culture medium (containing 10% FBS, OCP BulletKit® Lonza, Walkersville, USA) was supplemented with appropriate amounts of important growth factors favoring osteoclast differentiation and activity, including M-CSF (33 ng/ml, OCP BulletKit® Lonza, Walkersville, USA) and RANK-ligand (66 ng/ml, OCP BulletKit® Lonza, Walkersville, USA) in 200 μl of medium. The cells were incubated in a CO2 incubator in humidified atmosphere of 95% air and 5% carbon dioxide at 37° C. for 7 days. The test compounds and reference compound OPG were added at day 0. Supernatants collected at day 7 were stored at −70° C. until analysis of TRACP 5b. TRACP 5b was measured from the culture medium (20 μl/sample) using VICTOR2™ Multilabel Counter (PerkinElmer, Waltham, Mass., USA). […]

[5] = OVX rats vs OVX vehicle, E2 4 μg/kg/d s.c.
[6] = OVX rats, 17β-estradiol 4 μg/kg/d s.c., two weeks

Molecule | effect on osteoblast differentiation [1] | effect on osteoblast activity [2] | Body weight, change during the first week [3, 5] | Body weight, change during the in-life phase [3, 5] | Relative uterine weight at day 14 [3, 5] | Serum CTX levels, change during the in-life phase [3, 5] | Serum OC levels, change during the in-life phase [3, 5] | Serum PINP levels, change during the in-life phase [3, 5] | Serum TRACP 5b activity, change during the in-life phase [3, 5] | OVX-induced gain in body weight [3, 6] | OVX-induced increase in serum CTX levels [3, 6] | OVX-induced increase in serum OC levels [3, 6] | OVX-induced increase in serum PINP levels [3, 6] | OVX-induced reduction in relative uterine weight [3, 6] | OVX-induced reduction in serum TRACP 5b activity [3, 6] | effect on osteoclast differentiation [4]
C[C@]12CC[C@@H]3c4ccc(O)cc4CC[C@H]3[C@@H]1CC[C@@H]2O [Compound E2, 17β-estradiol, reference compound] | stimulated significantly | stimulated significantly | ↓ ** | ↓ ** | ↑ ** | ↓ *** | ↓ *** | ↓ ** | NS | prevented | prevented | prevented | prevented | prevented | did not affect | –
OPG: Osteoprotegerin, reference inhibitor of osteoclast differentiation (protein, UniProt O00300 22-401, looked up) Tumor necrosis factor …: ETFPPKYLHYDEETSHQLLCDKCPPGTYLKQHCTAKWKTVCAPCPDHYYTDSWHTSDECLYCSPVCKELQYVKQECNRTHNRVCECKEGRYLEIEFCLKHRSCPPGFGVVQAGTPERNTVCKRCPDGFFSNETSSKAPCRKHTNCSVFGLLLTQKGNATHDNICSGNSESTQKCGIDVTLCEEAFFRFAVPTKFTPNWLSVLVDNLPGTKVNAESVERIKRQHSSQEQTFQLLKLWKHQNKDQDIVKKIIQDIDLCENSVQRHIGHANLTFEQLRSLMESLPGKKVGAEDIEKTIKACKPSDQILKLLSLWRIKNGDQDTLKGLMHALKHSKTYHFPKTVTQSLKKTIRFLHSFTMYKLYQKLFLEMIGNQVQSVKISCL | – | – | – | – | – | – | – | – | – | – | – | – | – | – | – | inhibited significantly
